In patent US20260083769A1, “2-Aminopropane-1,3-Diol-Capped Cationic Peptoids for Nucleic Acid Delivery” (NUTCRACKER THERAPEUTICS, INC., priority 2022, published 2026):
Where two headings read alike, the source gives them in different places. Where a SMILES comes first, the peptide text is derived from it. [ ]: non-standard residue; d: D form. Gly(Nα-oleyl) = CCCCCCCC/C=C\CCCCCCCCNCC(=O)O; Gly(N-dodecyl) = CCCCCCCCCCCCNCC(=O)O; N(CH(CH2OH)2)Gly = O=C(O)CNC(CO)CO; N(octyl)Gly = CCCCCCCCNCC(=O)O; NDecylGly = CCCCCCCCCCNCC(=O)O; NHexGly = CCCCCCNCC(=O)O

What was measured:
[1] = Particle size and polydispersity (PDI) of delivery vehicles by dynamic light scattering; format: physicochemical
Method: The resulting delivery vehicle complexes were evaluated by dynamic light scattering (DLS) to determine the volume average particle size/diameter (nm) and the size polydispersity index (PDI) within the delivery vehicle complex.
Particle size. Particle sizes and size distributions were measured using a Wyatt DynaPro® Plate Reader III. In general, formulated samples were diluted to 2 ng/μL in 100 µL PBS. Data is reported as the hydrodynamic diameter (in nm) of the cumulant fit of the correlation function, and the polydispersity of that measurement.
In one particular instance, the size and polydispersity (PDI) of delivery vehicles was measured by dynamic light scattering in PBS using a DynaPro® plate reader III. The zeta potential of delivery vehicles was determined using Nano-ZS™ particle analyzer. Zeta sample was diluted to 30 uM total lipid in a weakly buffered solution of 10 mM HEPES, 10 mM MES, 10 mM ammonium acetate pH 7. Measurements were collected in duplicate for over 30 run with the voltage manually set to […]

[2] = Percent encapsulated mRNA, RiboGreen assay; format: physicochemical
Method: Percent encapsulation. The percentage of mRNA encapsulated within the delivery vehicle complexes containing Fluc mRNA was determined using a modified RiboGreen® assay. In general, formulated mRNA samples were diluted to 500 ng/ml in Tris-EDTA buffer with or without Triton-X™. RiboGreen® (Invitrogen) was added at a 200-fold dilution, and the plate was incubated for 5 minutes. Fluorescence was measured at Ex. […]/Em. 520 nm and encapsulated mRNA was calculated by taking the ratio of fluorescence for non-lysed particles versus lysed particles.
The mRNA concentration and the percentage of encapsulated mRNA were determined using a fluorescence-based Quant-iT™ RiboGreen® RNA Reagent Kit using a literature procedure. To determine the mRNA concentration, delivery vehicles were incubated with 2% Triton™ X-100 for 10 min to release entrapped mRNA, followed by addition of RiboGreen® RNA reagent. The fluorescence intensity of mRNA-RiboGreen® reagent complex (excitation at 485 nm and emission at 530 nm) was detected using a microplate reader. The ratio of fluorescence without and with Triton™ X-100 were used to calculate the percentage of encapsulated mRNA.

[3] = Apparent particle pKa, TNS fluorescence assay; format: physicochemical; conditions: Table 5; apparent particle pKa of delivery vehicle
Method: The apparent particle pKa was assessed by a TNS fluorescence assay. Briefly, particles were diluted to 130 uM total lipid in TNS buffer ranging in pH 3-11 for 10 minutes with […] of TNS probe. The fluorescence was measured at room temperature in a plate reader ex 320/em 445. Fluorescence intensity was normalized to the minimal and maximal values and the pKa was determined by a 3 parameter fit to determine the half maximum of the curve.

[4] = RBC hemolysis as metric for fusogenicity; format: cell-based; conditions: sheep red blood cells (RBCs), 5% v/v
Method: RBC hemolysis was used as a metric for fusogenicity of LNPs at low pH. […] Particles were diluted to […] total lipid in well with 5% RBC solution and incubated at 37° C. for 45 min. Supernatant was collected and absorbance read on a microplate reader at 425 nm. Fusion was normalized to a fully lysed sample with 2% Triton™ and a buffer-only control. % hemolysis=100*[(ABS T-background)−(ABS sample-background)/(ABS T-background)].

[5] = Table 5, delivery vehicle comprising the peptoid, Formulation D22, fLuc mRNA
[6] = Table 5, delivery vehicle, 37° C. 45 min, pH 5, read-out: Hemolysis at pH 5
[7] = Table 5, delivery vehicle, 37° C. 45 min, pH 7, read-out: Hemolysis at pH 7
[8] = Table 6, comparative peptoid delivery vehicle
[9] = Table 6, comparative peptoid delivery vehicle, pH 5, read-out: Hemolysis at pH 5
[10] = Table 6, comparative peptoid delivery vehicle, pH 7, read-out: Hemolysis at pH 7

Row | Compound | PDI [1, 5] | Particle Size (nm) [1, 5] [nm] | % Encapsulation [2, 5] [%] | pKa (TNS) [3] | PDI [1, 8] | Particle Size (nm) [1, 8] [nm] | % Encapsulation [2, 8] [%] | hemolysis at 45 min, 150 mM total lipid [4, 6] [%] | hemolysis at 45 min, 150 mM total lipid [4, 7] [%] | hemolysis at 45 min, 150 mM total lipid [4, 9] [%] | hemolysis at 45 min, 150 mM total lipid [4, 10] [%]
1 | CCCCCCCC/C=C\CCCCCCCCN(CC(=O)N(CCCCCCCCCCCC)CC(N)=O)C(=O)CN(CCCCCCCCCCCC)C(=O)CNC(CO)CO [Compound 4] (H-[N(CH(CH2OH)2)Gly][Gly(N-dodecyl)][Gly(Nα-oleyl)][Gly(N-dodecyl)]-NH2) | Multimodal | 631.3 | 12.3 |  |  |  |  |  |  |  | 
2 | CCCCCCCCCCN(CC(N)=O)C(=O)CN(CCCCCCCCCC)C(=O)CN(CCCCCCCCCC)C(=O)CN(CC(CC)CCCC)C(=O)CN(CCCCCCCCCC)C(=O)CN(CCCCCCCCCC)C(=O)CN(CCCCCCCCCC)C(=O)CN(CC(CC)CCCC)C(=O)CNC(CO)CO (stereo not shown) [Compound 8] |  |  |  | 5.786 |  |  |  | 0.5 | -0.1 |  | 
3 | CCCCCCCCN(CC(N)=O)C(=O)CN(CCCCCCCC)C(=O)CN(CCCCCCCC)C(=O)CN(CC(CC)CCCC)C(=O)CN(CCCCCCCC)C(=O)CN(CCCCCCCC)C(=O)CN(CCCCCCCC)C(=O)CN(CC(CC)CCCC)C(=O)CNC(CO)CO (stereo not shown) [Compound 11] | 0.111 | 106.6 | 66.1 |  |  |  |  |  |  |  | 
4 | CCCCCCCCCCCCN(CC(=O)N(CC(=O)N(CCCCCCCCCCCC)CC(=O)N(CC(N)=O)CC(CC)CCCC)CC(CC)CCCC)C(=O)CNC(CO)CO (stereo not shown) [Compound 23] | Multimodal | 1269.5 | 2.3 |  |  |  |  |  |  |  | 
5 | CCCCCCCCN(CC(=O)N(CCCCCCCC)CC(=O)N(CCCCCC)CC(=O)N(CCCCCCCC)CC(=O)N(CCCCCCCC)CC(=O)N(CCCCCC)CC(N)=O)C(=O)CNC(CO)CO [Compound 25] (H-[N(CH(CH2OH)2)Gly][N(octyl)Gly][N(octyl)Gly][NHexGly][N(octyl)Gly][N(octyl)Gly][NHexGly]-NH2) | Multimodal | 2220.3 | 24.3 |  |  |  |  | 94.6 | 94.7 |  | 
6 | CCCCCCCCCCN(CC(N)=O)C(=O)CN(CCCCCCCC)C(=O)CN(CCCCCCCC)C(=O)CN(CCCCCCCCCC)C(=O)CN(CCCCCCCC)C(=O)CN(CCCCCCCC)C(=O)CNC(CO)CO [Compound 26] (H-[N(CH(CH2OH)2)Gly][N(octyl)Gly][N(octyl)Gly][NDecylGly][N(octyl)Gly][N(octyl)Gly][NDecylGly]-NH2) | Multimodal | 421.9 | 66.1 |  |  |  |  |  |  |  | 
7 | CCCCCCCCCCN(CC(=O)N(CCCCCC)CC(N)=O)C(=O)CN(CCCCCCCC)C(=O)CN(CCCCCC)C(=O)CN(CCCCCCCCCC)C(=O)CN(CCCCCCCC)C(=O)CNC(CO)CO [Compound 32] (H-[N(CH(CH2OH)2)Gly][N(octyl)Gly][NDecylGly][NHexGly][N(octyl)Gly][NDecylGly][NHexGly]-NH2) | Multimodal | 692.4 | 23.3 |  |  |  |  |  |  |  | 

Continued, in another order:

Row | PDI [1, 5] | Particle Size (nm) [1, 5] [nm] | % Encapsulation [2, 5] [%] | pKa (TNS) [3] | PDI [1, 8] | Particle Size (nm) [1, 8] [nm] | % Encapsulation [2, 8] [%] | Compound | hemolysis at 45 min, 150 mM total lipid [4, 6] [%] | hemolysis at 45 min, 150 mM total lipid [4, 7] [%] | hemolysis at 45 min, 150 mM total lipid [4, 9] [%] | hemolysis at 45 min, 150 mM total lipid [4, 10] [%]
8 |  |  |  |  | 0.206 | 61.3 | 86.6 | CCCCCCCCCCCCN(CC(N)=O)C(=O)CN(CCCCCCCCCCCC)C(=O)CN(CCCCCCCCCCCC)C(=O)CN(CCCCCCCCCCCC)C(=O)CNCCN [Compound C1, reference compound] |  |  | -15.1 | 39.2
9 |  |  |  |  | 0.179 | 67.0 | 92.2 | CCCCCCCCCCCCN(CC(N)=O)C(=O)CN(CCCCCCCCCCCC)C(=O)CN(CCCCCCCCCCCC)C(=O)CN(CCCCCCCCCCCC)C(=O)CNCCCO [Compound C2, reference compound] |  |  | 10.6 | 37.2
10 |  |  |  |  | 0.196 | 65.3 | 87.5 | CCCCCCCCCCCCN(CC(N)=O)C(=O)CN(CCCCCCCCCCCC)C(=O)CN(CCCCCCCCCCCC)C(=O)CN(CCCCCCCCCCCC)C(=O)CNCCO [Compound C3, reference compound] |  |  | 24.4 | 51.1
11 |  |  |  |  | 0.186 | 67.7 | 90.5 | CCCCCCCCCCCCN(CC(N)=O)C(=O)CN(CCCCCCCCCCCC)C(=O)CN(CCCCCCCCCCCC)C(=O)CN(CCCCCCCCCCCC)C(=O)CN(CCO)CCO [Compound C4, reference compound] |  |  | 4.9 | 12
12 |  |  |  |  | 0.135 | 57.3 | 97.5 | CCCCCCCCCCCCN(CC(N)=O)C(=O)CN(CCCCCCCCCCCC)C(=O)CN(CCCCCCCCCCCC)C(=O)CN(CCCCCCCCCCCC)C(=O)CNCCCN [Compound C5, reference compound] |  |  | -15.6 | 39.8
13 |  |  |  |  | 0.223 | 67.1 | 92.6 | CCCCCCCCCCCCN(CC(N)=O)C(=O)CN(CCCCCCCCCCCC)C(=O)CN(CCCCCCCCCCCC)C(=O)CN(CCCCCCCCCCCC)C(=O)CNCCOC [Compound C6, reference compound] |  |  | 4.9 | 22.7
14 |  |  |  |  | 0.219 | 71.3 | 93.1 | CCCCCCCCCCCCN(CC(N)=O)C(=O)CN(CCCCCCCCCCCC)C(=O)CN(CCCCCCCCCCCC)C(=O)CN(CCCCCCCCCCCC)C(=O)CNCCCOC [Compound C7, reference compound] |  |  | 31.6 | 65.5
15 |  |  |  |  | 0.192 | 60.2 | 93.5 | CCCCCCCCCCCCN(CC(N)=O)C(=O)CN(CCCCCCCCCCCC)C(=O)CN(CCCCCCCCCCCC)C(=O)CN(CCCCCCCCCCCC)C(=O)CNCCCn1ccnc1 [Compound C8, reference compound] |  |  | 2.3 | 8.1
16 |  |  |  |  | 0.201 | 63.0 | 98.8 | CCCCCCCCCCCCN(CC(N)=O)C(=O)CN(CCCCCCCCCCCC)C(=O)CN(CCCCCCCCCCCC)C(=O)CN(CCCCCCCCCCCC)C(=O)CNCCCn1ccnc1C [Compound C9, reference compound] |  |  | 0.7 | 2.4
17 |  |  |  |  | 0.520 | 84.6 | 86.6 | CCCCCCCCCCCCN(CC(N)=O)C(=O)CN(CCCCCCCCCCCC)C(=O)CN(CCCCCCCCCCCC)C(=O)CN(CCCCCCCCCCCC)C(=O)CNCCCN1CCOCC1 [Compound C10, reference compound] |  |  | 0.6 | 1
18 |  |  |  |  | 0.179 | 70.2 | 92.4 | CCCCCCCCCCCCN(CC(N)=O)C(=O)CN(CCCCCCCCCCCC)C(=O)CN(CCCCCCCCCCCC)C(=O)CN(CCCCCCCCCCCC)C(=O)CNCCCN1CCCCC1 [Compound C11, reference compound] |  |  | 9.6 | 10.2
19 |  |  |  |  | 0.175 | 62.4 | 95.9 | CCCCCCCCCCCCN(CC(N)=O)C(=O)CN(CCCCCCCCCCCC)C(=O)CN(CCCCCCCCCCCC)C(=O)CN(CCCCCCCCCCCC)C(=O)CN(CC)CCO [Compound C12, reference compound] |  |  | -2.4 | 3.9
20 |  |  |  |  | 0.180 | 57.6 | 95.4 | CCCCCCCCCCCCN(CC(N)=O)C(=O)CN(CCCCCCCCCCCC)C(=O)CN(CCCCCCCCCCCC)C(=O)CN(CCCCCCCCCCCC)C(=O)CNCCN(C)C [Compound C13, reference compound] |  |  | -12.3 | 8.2
